Experimental data as given in ChEMBL document CHEMBL5376012, “Consensus screening for a challenging target: the quest for P-glycoprotein inhibitors” (RSC Med Chem, 2024).
Active and inactive are the calls of the source. The calls are words filed in the database; no cut-off is given here.

Tests used:
[1] = target: ATP-dependent translocase ABCB1 (Homo sapiens, UniProt P08183); assay: Inhibition of human recombinant P-gp ATPase activity in isolated membranes incubated in presence of verapamil by firefly luciferase based luminescence analysis; assay type: cell membranes
[2] = tested on: Caco-2; assay: Cytotoxicity against colchicine and vincristine stimulated human Caco-2 cells assessed as reduction in cell viability at 10 uM preincubated for 30 mins followed by colchicine and vincristine addition for 24 hrs by CCK-8 assay relative to control; assay type: functional; conditions: time 24.5 hrs
[3] = tested on: Caco-2; assay: Cytotoxicity against colchicine and vincristine stimulated human Caco-2 cells assessed as reduction in cell viability at 10 uM preincubated for 30 mins followed by colchicine and vincristine addition for 24 hrs by CCK-8 assay; assay type: functional, cell-based; conditions: time 24.5 hrs

Sequence of ATP-dependent translocase ABCB1 (P08183 whole entry): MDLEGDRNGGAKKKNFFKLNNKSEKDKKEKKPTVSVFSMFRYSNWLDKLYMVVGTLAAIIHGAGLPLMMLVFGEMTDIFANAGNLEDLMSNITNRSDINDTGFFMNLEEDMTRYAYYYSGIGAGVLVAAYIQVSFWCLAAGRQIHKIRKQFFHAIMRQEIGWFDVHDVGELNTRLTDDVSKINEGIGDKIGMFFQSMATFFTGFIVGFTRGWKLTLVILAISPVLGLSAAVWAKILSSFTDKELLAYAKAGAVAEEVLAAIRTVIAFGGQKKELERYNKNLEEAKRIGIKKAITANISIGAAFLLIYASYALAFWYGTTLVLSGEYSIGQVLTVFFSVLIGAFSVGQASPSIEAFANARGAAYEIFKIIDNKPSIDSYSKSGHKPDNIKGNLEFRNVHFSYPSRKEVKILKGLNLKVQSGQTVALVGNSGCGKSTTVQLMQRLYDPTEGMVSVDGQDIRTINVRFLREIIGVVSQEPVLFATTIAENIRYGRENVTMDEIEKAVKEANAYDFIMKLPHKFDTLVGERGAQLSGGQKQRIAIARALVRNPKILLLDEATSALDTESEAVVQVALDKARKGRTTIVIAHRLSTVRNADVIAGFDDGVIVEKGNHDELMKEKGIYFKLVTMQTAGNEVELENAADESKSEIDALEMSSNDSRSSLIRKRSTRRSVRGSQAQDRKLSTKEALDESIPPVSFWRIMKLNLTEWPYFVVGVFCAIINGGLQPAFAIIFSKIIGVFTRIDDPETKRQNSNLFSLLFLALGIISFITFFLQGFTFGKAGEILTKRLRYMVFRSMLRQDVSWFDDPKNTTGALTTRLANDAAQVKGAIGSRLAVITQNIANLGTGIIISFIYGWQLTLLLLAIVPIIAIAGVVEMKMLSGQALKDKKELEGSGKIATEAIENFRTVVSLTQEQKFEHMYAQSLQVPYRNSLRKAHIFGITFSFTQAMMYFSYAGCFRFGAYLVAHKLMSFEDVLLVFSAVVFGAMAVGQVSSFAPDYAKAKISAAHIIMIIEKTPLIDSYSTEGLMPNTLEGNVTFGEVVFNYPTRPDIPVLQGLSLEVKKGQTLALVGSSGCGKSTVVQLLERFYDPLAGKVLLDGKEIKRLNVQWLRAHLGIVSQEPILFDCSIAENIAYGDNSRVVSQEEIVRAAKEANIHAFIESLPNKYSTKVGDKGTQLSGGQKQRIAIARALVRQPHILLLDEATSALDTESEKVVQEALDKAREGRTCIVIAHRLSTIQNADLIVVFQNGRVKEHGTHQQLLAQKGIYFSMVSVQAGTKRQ

Row | Compound | IC50 [1] [µM] | Activity [2] [%] | Activity [3]
1 | CC(C)(C)OC(=O)N[C@H](Cc1ccc(OC(=O)OC(C)(C)C)cc1)C(=O)NCCCC(=O)Oc1ccc2c(=O)c(Oc3ccccc3F)coc2c1 | > 50 |  | 
2 | O=C(O)[C@H]1O[C@@H](Oc2cc3oc(-c4ccc(O)cc4)cc(=O)c3c(O)c2O)[C@H](O)[C@@H](O)[C@@H]1O [SCUTELLARIN] | 19.7 |  | 
3 | CC(=O)c1c(O)c(C)c(O)c2c1OC1=CC(=O)/C(=C(/C)Nc3cc(-c4nnn(CC(=O)O)n4)ccc3O)C(=O)[C@@]12C | 3.17 | 30 | 
4 | COC(=O)C[C@@H](c1ccc(-c2cc(C(=O)O)ccc2Cl)o1)c1oc(CN2CCN(c3ccc(OC)cc3)CC2)cc(=O)c1O | 4.99 | 30 | 
5 | COc1ccc2c(c1)[C@H](CCNC(=O)C[C@@H](C1=C(O)[C@@]3(Oc4c(Cl)c(OC)cc(OC)c4C3=O)[C@H](C)CC1=O)c1ccc(O)c(OC)c1)C(=O)N2 | > 50 |  | 
6 | COC(=O)[C@@H](Cc1cccc([N+](=O)[O-])c1O)NC(=O)CCC(=O)OCC(=O)[C@@]1(O)CC[C@@H]2[C@@H]3CCC4=CC(=O)CC[C@]4(C)[C@@H]3CC[C@@]21C | 7.9 |  | 
7 | COc1cc([C@@H](CC(=O)NCCCN2CCOCC2)C2=C(O)[C@@]3(Oc4c(Cl)c(OC)cc(OC)c4C3=O)[C@H](C)CC2=O)ccc1O | 3.31 | 30 | 
8 | COc1cc([C@@H](CC(=O)NCCC(=O)Nc2ccccn2)C2=C(O)[C@@]3(Oc4c(Cl)c(OC)cc(OC)c4C3=O)[C@H](C)CC2=O)ccc1O | 1.28 | 30 | 
9 | COc1cc(CCNC(=O)C[C@@H](C2=C(O)[C@@]3(Oc4c(Cl)c(OC)cc(OC)c4C3=O)[C@H](C)CC2=O)c2ccc(SC)cc2)c([N+](=O)[O-])cc1OC | 2.4 | 30 | 
10 | CC(C)C[C@H](NC(=O)[C@H]1CCCN1C(=O)[C@@H](C)NC(=O)COc1cc(O)c2c(=O)c(-c3ccc4c(c3)OCCO4)coc2c1)C(=O)CC(N)=O | > 50 |  | inactive
11 | COc1ccc(-c2coc3c4c(cc(O)c3c2=O)OC(=O)C[C@H]4c2ccc(OCc3nccn3C)c(OC)c2)cc1OC | 4.8 | 30 | 
12 | CCOC(=O)c1cccc(NC(=O)O[C@@H]2CO[C@H]3[C@@H]2OC[C@@H]3NS(=O)(=O)c2cc(OC)ccc2OC)c1 | > 50 |  | inactive
